Assay results: PMC5427475, “Effect of clopidogrel on the hydroxylation and sulfoxidation of omeprazole: A single dose study in healthy human volunteers” (EXCLI Journal, 2017)
Where two headings read alike, the source gives them in different places.

Legend:
[1] = Single-dose crossover pharmacokinetic study of omeprazole (40 mg) alone or with clopidogrel (150 mg) in healthy volunteers (CYP2C19 EM and PM), plasma LC-MS; format: in vivo, human; conditions: for AUC0-∞, % increase / Cmax, % increase / E Half-life, % increase / Tmax, % increase / Cl, % increase: OMP+CLOP vs OMP alone; for half-life: read-out: E Half-life (converted)
Experimental: A group of twelve healthy volunteers were recruited for this study (divided into two groups), and written informed consent was obtained from all participants included in the study. […] Electrocardiogram, routine lab tests including hematological, kidney and liver function tests were performed for all the volunteers. They were physically examined and their medical history was also evaluated. All volunteers were non-smokers and abstained from taking any other medicine and juices in the week prior to the study. Volunteers were served standard breakfast and lunch during the study. […] This study was conducted in accordance to “World Medical Association (WMA) declaration of Helsinki-Ethical principles for medical research involving human subjects” and its amendments. The study was approved by the ethical committee, Department of Pharmacy, University of […], Pakistan. (Application number13/EC/Pharm. Ref number 12/Pharm). It was a single dose, 2-period, 2-sequence study with 14 days washout period. […] Approximately 3 mL of blood was collected from each volunteer at 0, 0.5, 1, 2, 3, 4, 6, and 8 hr after dose administration in heparinized tubes. After centrifugation, the plasma was transferred into properly labeled eppendroff tubes and stored at a temperature of -20 °C until analysis. OMP and its metabolites were extracted from the plasma using precipitation method and were analyzed using LCMS method. The mobile phase consisted of 0.1 % formic acid in acetonitrile: 0.1 % formic acid in water (40/60 v/v) using Hichrom RP18 (150 × 3.0 mm, 3 μm UK) as a stationary phase interfaced with a LTQ Orbit rap mass spectrometer. Pantoprazole was used as an internal standard (Ahmad et al., 2015[1]). Various PK parameters were calculated using the PK Solutions software. […] The AUC0-∞ was determined by trapezoidal rule. The elimination half life was determined by using first-order equation, i.e., The apparent oral clearance (CL/F) was determined by using equation, Dose/AUC0-∞. The pharmacokinetic data was interpreted statistically using SPSS software (version 16.0; SPSS, Inc, Chicago, IL). […] P < 0.05 was considered statistically significant.

[2] = ref McEwen et al., 1999; cited from earlier work
[3] = extensive metabolizers, OMP 40 mg + CLOP 150 mg
[4] = extensive metabolizers, OMP 40 mg alone
[5] = poor metabolizers, OMP 40 mg + CLOP 150 mg
[6] = poor metabolizers, OMP 40 mg alone
[7] = human, plasma, oral, 40 mg, extensive metabolizers, OMP 40 mg alone
[8] = human, plasma, oral, 40 mg, extensive metabolizers, OMP 40 mg alone, read-out: Tmax
[9] = human, plasma, oral, 40 mg, poor metabolizers, OMP 40 mg alone
[10] = human, plasma, oral, 40 mg, poor metabolizers, OMP 40 mg alone, read-out: Tmax
[11] = human, plasma, oral, extensive metabolizers (n = 8), OMP 40 mg + CLOP 150 mg, single dose, plasma, read-out: Cmax
[12] = human, plasma, oral, extensive metabolizers, OMP 40 mg + CLOP 150 mg
[13] = human, plasma, oral, extensive metabolizers, OMP 40 mg + CLOP 150 mg, read-out: Tmax
[14] = human, plasma, oral, poor metabolizers (n = 4), OMP 40 mg + CLOP 150 mg, single dose, plasma, read-out: Cmax
[15] = human, plasma, oral, poor metabolizers, OMP 40 mg + CLOP 150 mg
[16] = human, plasma, oral, poor metabolizers, OMP 40 mg + CLOP 150 mg, read-out: Tmax
[17] = human, plasma, po, 40 mg, extensive metabolizers (n = 8), OMP 40 mg alone, single oral dose, plasma, read-out: Cmax
[18] = human, plasma, po, 40 mg, poor metabolizers (n = 4), OMP 40 mg alone, single oral dose, plasma, read-out: Cmax

Compound | AUC0-∞, % increase ([1]; extensive metabolizers) | Cmax, % increase ([1]; extensive metabolizers) | E Half-life, % increase ([1]; extensive metabolizers) | Tmax, % increase ([1]; extensive metabolizers) | AUC0-∞, % increase ([1]; poor metabolizers) | Cmax, % increase ([1]; poor metabolizers) | Tmax, % increase ([1]; poor metabolizers) | AUC(0-inf) [1, 7] | half-life [1, 7] | Tmax [1, 8] | AUC(0-inf) [1, 9] | half-life [1, 9] | Tmax [1, 10] | Cmax [1, 11] | AUC(0-inf) [1, 12] | half-life [1, 12] | Tmax [1, 13] | Cmax [1, 14] | AUC(0-inf) [1, 15] | half-life [1, 15] | other results
COc1ccc2nc([S+]([O-])Cc3ncc(CO)c(OC)c3C)[nH]c2c1 (centres unmarked) [5-OH-OMP, 5-hydroxyomeprazole] | -14.22% ± 2.80 | -16.23% ± 5.8 | -8.30% ± 6.1 | -8.23 ± 4.3% | -1.73% ± 2.38 | -4.9% ± 3.61 | 5.20% ± 4.0 | – | – | – | – | – | – | – | – | – | – | – | – | – | Cmax ([1]; extensive metabolizers (n = 8), OMP 40 mg + CLOP 150 mg, single dose, plasma): 401 ± 35 ng/mL; Cmax ([1]; extensive metabolizers (n = 8), OMP 40 mg alone, single oral dose, plasma): 562 ± 53 ng/mL; AUC0-∞ [1, 3]: 1615 ± 401 ng·h/mL; E Half-life [1, 3]: 1.097 ± 0.106 h; Tmax [1, 3]: 2.49 ± 0.281 h; AUC0-∞ [1, 4]: 2203 ± 619 ng·h/mL; E Half-life [1, 4]: 1.24 ± 0.129 h; Tmax [1, 4]: 2.723 ± 0.394 h; Cmax ([1]; poor metabolizers (n = 4), OMP 40 mg + CLOP 150 mg, single dose, plasma): 373 ± 32 ng/mL; Cmax ([1]; poor metabolizers (n = 4), OMP 40 mg alone, single oral dose, plasma): 407 ± 46 ng/mL; AUC0-∞ [1, 5]: 1566 ± 90 ng·h/mL; E Half-life [1, 5]: 2.828 ± 0.188 h; Tmax [1, 5]: 3.138 ± 0.251 h; AUC0-∞ [1, 6]: 1607 ± 126 ng·h/mL; E Half-life [1, 6]: 2.588 ± 0.111 h; Tmax [1, 6]: 2.988 ± 0.311 h
COC(=O)[C@H](c1ccccc1Cl)N1CCc2sccc2C1 [CLOP, clopidogrel] | – | – | – | – | – | – | – | – | – | – | – | – | – | – | – | – | – | – | – | – | oral bioavailability [2]: less than 50%
COc1ccc2[nH]c([S+]([O-])Cc3ncc(C)c(OC)c3C)nc2c1 (centres unmarked) [OMP, omeprazole] | 9.33% ± 5.13 | – | 6.31% ± 4.31 | 0.043% ± 0.0204 | 4.11% ± 1.68 | 5.46% ± 2.08 | -0.78% ± 0.32 | 4040 ± 282 ng·h/mL | 1.05 ± 0.187 h | 2.8 ± 0.178 h | 8820 ± 778 ng·h/mL | 1.58 ± 0.058 h | 2.99 ± 0.411 h | 1090 ± 146 ng/mL | 4900 ± 620 ng·h/mL | 1.13 ± 0.185 h | 2.9 ± 0.228 h | 1630 ± 116 ng/mL | 9070 ± 861 ng·h/mL | 1.51 ± 0.049 h | drug metabolite ratio [AUC]OMP/5-OH-OMP ([1]; EM): 1.94 ±0.602; drug metabolite ratio [AUC]OMP/OMP-S ([1]; EM): 13.64 ± 2.711; drug metabolite ratio [AUC]OMP/5-OH-OMP ([1]; PM): 9.84 ± 4.543; drug metabolite ratio [AUC]OMP/OMP-S ([1]; PM): 9.85 ± 4.98; Cl (apparent oral clearance, Dose/AUC0-∞) [1, 3]: 1.94445 ± 0.356 mL/min/kg; Cl (apparent oral clearance, Dose/AUC0-∞) [1, 4]: 2.29722 ± 0.38992 mL/min/kg; Cl, % increase ([1]; extensive metabolizers): -15.42% ± 4.92; Tmax [1, 16]: 2.98 ± 0.414 h; Cmax [1, 17]: 890 ± 83 ng/mL; Cmax [1, 18]: 1410 ± 146 ng/mL; Cl (apparent oral clearance, Dose/AUC0-∞) [1, 5]: 0.88245 ± 0.125 mL/min/kg; Cl (apparent oral clearance, Dose/AUC0-∞) [1, 6]: 0.97735 ± 0.144 mL/min/kg; Cl, % increase ([1]; poor metabolizers): -9.6% ± 1.72; E Half-life, % increase ([1]; poor metabolizers): -4.73% ± 3.06
COc1ccc2nc(S(=O)(=O)Cc3ncc(C)c(OC)c3C)[nH]c2c1 [OMP-S, omeprazole sulfone] | 5.01% ± 1.57 | 8.01% ± 2.0 | 3.81% ± 1.70 | -2.5% ± 1.18 | 2.32% ± 2.9 | – | -3.28% ± 0.60 | 535 ± 58 ng·h/mL | 2.37 ± 0.472 h | 2.72 ± 0.278 h | 1500 ± 118 ng·h/mL | 3.34 ± 0.438 h | 3.06 ± 0.17 h | 198 ± 26 ng/mL | 612 ± 70 ng·h/mL | 2.48 ± 0.496 h | 2.65 ± 0.255 h | 431 ± 56 ng/mL | 1520 ± 102 ng·h/mL | 3.14 ± 0.44 h | Tmax [1, 16]: 3 ± 0.077 h; Cmax [1, 17]: 175 ± 24 ng/mL; Cmax [1, 18]: 444 ± 53 ng/mL; E Half-life, % increase ([1]; poor metabolizers): -6.08% ± 0.96
